Source: patent US20070253961A1, “Pharmaceutical Composition Comprising the Anti-4-1Bb Antibody for Treating or Preventing Rheumatoid Arthritis” (ULSAN INDUSTRIAL EDUCATION FOUNDATION, priority 2003, published 2007)

System: CIA
Assay: 1-MT (IDO inhibition) reversal of 4-1BB-mediated suppression of CIA
Type: in vivo, mice
Protocol: Each mouse was injected with 200[…] of purified anti-4-1BB (3H3, rat IgG1), anti-4-1BBL (TKS-1, rat IgG1), or control rat IgG i.p. on PI days 0, 2, 4, 6, and 8. We tested the dose response of the antibodies in vivo by measuring serum IFN-γ levels for anti-4-1BB and suppression of the recall response for anti-4-1BBL. […] To treat established CIA, the mice were injected on PI days 28, 30, 32, 34, and 36. To block IFN-γ mice were injected i.p. every 4 days with 500[…] of purified R4-6A2 on PI days 0, 4, 8, and 12. Rat IgG again served as a control.
To inhibit IDO activity, slow-release polymer pellets impregnated with 1-MT (10 mg/day release rate) or placebo pellets (Innovative Research of America, Sarasota, Fla.) were implanted under the dorsal skin 1 day before the immunization. […] Because of the large size of these pellets relative to the small size of the mice, additional experiments were conducted with the implantation of two smaller pellets (10 mg/day release rate) per mouse, each containing 120 mg 1-MT, for a dose of 20 mg/day for 12 days. On day 13, two more pellets were implanted, for a total dosage period of 24 days.

Cn1cc(CC(N)C(=O)O)c2ccccc21 (racemic) [1-MT, 1-methyl D,L-tryptophan]
reversal of suppressive effect of anti-4-1BB on CIA (5 mg/day 1-MT, with anti-4-1BB): incomplete | suppressive effect of anti-4-1BB on CIA (20 mg/day dose of 1-MT, slow-release pellets, with anti-4-1BB): completely reversed | time of appearance of CIA after 1-MT reversal (1-MT with anti-4-1BB, 'in these experiments'): at the same time as in the control mice | day disease became evident (1-MT-treated mice with 3H3, control mice first showed signs on PI day 30): 48 PI day
